From paper PMC2654404 (Journal of molecular biology, 2008)
Values joined by “and” are separate entries in the source; they are usually repeats but may differ in a detail not shown here. Equal entries are not always repeated. Where two headings read alike, the source gives them in different places. Marks after values point to notes of the source that are not given here.

What was measured:
B. anthracis NMAT [1] = biological target: T1, B. anthracis NMAT (Bacillus anthracis, UniProt C3L5T6); type: biochemical
T1 sequence (C3L5T6 whole entry, looked up): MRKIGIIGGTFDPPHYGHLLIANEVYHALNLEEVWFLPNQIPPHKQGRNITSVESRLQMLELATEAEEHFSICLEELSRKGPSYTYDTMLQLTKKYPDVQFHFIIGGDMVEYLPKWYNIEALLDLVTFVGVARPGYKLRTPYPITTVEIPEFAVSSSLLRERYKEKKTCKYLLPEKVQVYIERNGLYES

B. anthracis NMAT [2] = biological target: T1, B. anthracis NMAT; type: biochemical; remark: listed apart in the source
B. anthracis NMAT [3] = biological target: T1, B. anthracis NMAT; type: biochemical; remark: listed apart in the source
[4] = tested on: (His)6-tag B. anthracis NMAT; type: biochemical, Bacillus anthracis
B. anthracis NMAT [5] = biological target: T1, B. anthracis NMAT; test: biochemical; type: binding
(His)6-tagged NMAT = (His)6-tagged NMAT (Bacillus anthracis, UniProt C3L5T6)
Chain of (His)6-tagged NMAT (C3L5T6 whole entry, looked up): as above

native B. anthracis NMAT [6] = type: biochemical, Bacillus anthracis; conditions: pH 7.5
native B. anthracis NMAT [7] = type: biochemical; conditions: pH 7.5
[8] = tested on: (His)6-tag B. anthracis NMAT; type: biochemical, Bacillus anthracis; remark: listed apart in the source
[9] = read-out: KD2 (dissociation constant, second site), pH 7.5

## O=C(O)c1cccnc1C(=O)O [quinolic acid]
B. anthracis NMAT [1]
  ability to activate or inhibit the NMAT reaction: None of these compounds were observed to have an effect

## NC(=O)c1ccc[n+]([C@@H]2O[C@H](COP(=O)([O-])O)[C@@H](O)[C@H]2O)c1 [NMN, nicotinamide mononucleotide]
B. anthracis NMAT [1]
  ability to activate or inhibit the NMAT reaction: None of these compounds were observed to have an effect
B. anthracis NMAT [2]
  activity of NMAT with the mononucleotide as substrate: little to no activity

## Nc1ncnc2c1ncn2[C@@H]1O[C@H](COP(=O)(O)OP(=O)(O)O)[C@@H](O)[C@H]1O [ADP]
B. anthracis NMAT [1]
  ability to activate or inhibit the NMAT reaction: None of these compounds were observed to have an effect
B. anthracis NMAT [3]
  ability to serve as substrate for NMAT in place of ATP: Only CTP and dATP were able to serve as substrates

## O=c1ccn([C@@H]2O[C@H](CO[P@@](=O)(O)O[P@@](=O)(O)OP(=O)(O)O)[C@@H](O)[C@H]2O)c(=O)[nH]1 (stereo in doubt) [UTP, uridine triphosphate]
B. anthracis NMAT [3]
  ability to serve as substrate for NMAT in place of ATP: Only CTP and dATP were able to serve as substrates

## O=c1[nH]cnc2c1ncn2[C@@H]1O[C@H](COP(=O)(O)OP(=O)(O)O)[C@@H](O)[C@H]1O [IDP, inosine diphosphate]
B. anthracis NMAT [3]
  ability to serve as substrate for NMAT in place of ATP: Only CTP and dATP were able to serve as substrates

## Nc1ccn([C@@H]2O[C@H](COP(=O)(O)OP(=O)(O)O)[C@@H](O)[C@H]2O)c(=O)n1 [CDP, cytidine diphosphate]
B. anthracis NMAT [3]
  ability to serve as substrate for NMAT in place of ATP: Only CTP and dATP were able to serve as substrates

## OCC(O)CO [glycerol]
[4]
  effect of 10% glycerol on the steady-state kinetic parameters of ATP and NaMN: no significant change in the kinetic parameters

## N[C@@H](CC(=O)O)C(=O)O [L-aspartic acid]
B. anthracis NMAT [1]
  ability to activate or inhibit the NMAT reaction: None of these compounds were observed to have an effect

## NC(=O)c1ccc[n+]([C@@H]2O[C@H](COP(=O)([O-])OP(=O)(O)OC[C@H]3O[C@@H](n4cnc5c(N)ncnc54)[C@H](O)[C@@H]3O)[C@@H](O)[C@H]2O)c1 [NAD, nicotinamide adenine dinucleotide]
B. anthracis NMAT [1]
  ability to activate or inhibit the NMAT reaction: None of these compounds were observed to have an effect

## Cc1cn([C@H]2C[C@H](O)[C@@H](COP(=O)(O)OP(=O)(O)O)O2)c(=O)[nH]c1=O [TDP, thymidine diphosphate]
B. anthracis NMAT [3]
  ability to serve as substrate for NMAT in place of ATP: Only CTP and dATP were able to serve as substrates

## Nc1nc2c(ncn2[C@@H]2O[C@H](COP(=O)(O)OP(=O)(O)OP(=O)(O)O)[C@@H](O)[C@H]2O)c(=O)[nH]1 [GTP, guanosine triphosphate]
B. anthracis NMAT [3]
  ability to serve as substrate for NMAT in place of ATP: Only CTP and dATP were able to serve as substrates

## Nc1ccn([C@@H]2O[C@H](COP(=O)(O)OP(=O)(O)OP(=O)(O)O)[C@@H](O)[C@H]2O)c(=O)n1 [CTP, cytidine triphosphate]
B. anthracis NMAT [3]
  ability to serve as substrate for NMAT in place of ATP: able to serve as substrates

## Nc1ncnc2c1ncn2[C@@H]1O[C@H](COP(=O)(O)O)[C@@H](O)[C@H]1O [AMP]
B. anthracis NMAT [1]
  ability to activate or inhibit the NMAT reaction: None of these compounds were observed to have an effect
B. anthracis NMAT [3]
  ability to serve as substrate for NMAT in place of ATP: Only CTP and dATP were able to serve as substrates

## Nc1ncnc2c1ncn2[C@@H]1O[C@H](COP(=O)(O)OP(=O)(O)OC[C@H]2O[C@@H]([n+]3cccc(C(=O)O)c3)[C@H](O)[C@@H]2O)[C@@H](O)[C@H]1O [NaAD, nicotinate adenine dinucleotide]
B. anthracis NMAT [5]; pH 7.5
  Stoichiometry to monomer: 0.924 ± 0.003
  ΔH: -6.446 ± 0.03 kcal/mol
  ΔS: ΔS=3.5 cal/mol*K
B. anthracis NMAT [5]; read-out: KD (dissociation constant), pH 7.5
  Kd: 3.2 ± 0.8 µM
(His)6-tagged NMAT
  pattern of inhibition by the reaction product, ATP as variable substrate: competitive inhibition
  pattern of inhibition by the reaction product, NaMN as variable substrate: competitive inhibition

## Nc1nc2c(ncn2[C@@H]2O[C@H](COP(=O)(O)OP(=O)(O)O)[C@@H](O)[C@H]2O)c(=O)[nH]1 [GDP, guanosine diphosphates]
B. anthracis NMAT [3]
  ability to serve as substrate for NMAT in place of ATP: Only CTP and dATP were able to serve as substrates

## nicotinamide adenine dinucleotide phosphate [NADP]
B. anthracis NMAT [1]
  ability to activate or inhibit the NMAT reaction: None of these compounds were observed to have an effect

## O=c1ccn([C@@H]2O[C@H](COP(=O)(O)OP(=O)(O)O)[C@@H](O)[C@H]2O)c(=O)[nH]1 [UDP, uridine diphosphate]
B. anthracis NMAT [3]
  ability to serve as substrate for NMAT in place of ATP: Only CTP and dATP were able to serve as substrates

## Nc1ncnc2c1ncn2[C@@H]1O[C@H](COP(=O)(O)OP(=O)(O)OP(=O)(O)O)[C@@H](O)[C@H]1O [ATP, adenosine triphosphate]
[4]; pH 7.5
  K0.5: 142 ± 28 μM and 142 ± 28 ^c μM and 79 ± 6 ^d μM
B. anthracis NMAT [5]
  Kd: 215 µM
B. anthracis NMAT [5]; pH 7.5
  ΔH1: ΔH1= −5348 ± 216 cal/mol
  ΔH2: ΔH2= −1.4E4 ± 350 cal/mol
  ΔS1: ΔS1= −1.2 cal/mol*K
  ΔS2: ΔS2= −36 cal/mol*K
B. anthracis NMAT [5]; [9]
  Kd: 3720 µM
Native B. anthracis NMAT [6]
  kcat: 1240 ± 111 ^c min^−1 and 864 ± 19 ^d min^−1
  nH (Hill coefficient): 0.661 ± 0.004 ^c
Native B. anthracis NMAT [7]
  kcat: 973 ± 120 ^c min^−1 and 702 ± 20 ^d min^−1
  nH (Hill coefficient): 0.621 ± 0.007 ^c
[8]
  difference in K0.5 between the continuous and discontinuous assays: ~4 fold

## O=C(CO)COP(=O)(O)O [DHAP, dihydroxyacetone phosphate]
B. anthracis NMAT [1]
  ability to activate or inhibit the NMAT reaction: None of these compounds were observed to have an effect

## O=P(O)(O)OC[C@H]1O[C@H](OP(=O)(O)OP(=O)(O)O)[C@H](O)[C@@H]1O [PRPP, 5-phospho-ribose-1-pyrophosphate]
B. anthracis NMAT [1]
  ability to activate or inhibit the NMAT reaction: None of these compounds were observed to have an effect

## Nc1ncnc2c1ncn2[C@H]1C[C@H](O)[C@@H](COP(=O)(O)OP(=O)(O)OP(=O)(O)O)O1 [dATP, Deoxyadenosine triphosphate]
B. anthracis NMAT [3]
  ability to serve as substrate for NMAT in place of ATP: able to serve as substrates

## O=C(O)c1ccc[n+]([C@@H]2O[C@H](COP(=O)(O)O)[C@@H](O)[C@H]2O)c1 [NaMN, nicotinate mononucleotide]
B. anthracis NMAT [5]; pH 7.5
  ΔH1: ΔH1= −5385 ± 47 cal/mol
  ΔH2: ΔH2= −3954 ± 183 cal/mol
  ΔS1: ΔS1= −2.4 cal/mol*K
  ΔS2: ΔS2= −3.9 cal/mol*K
B. anthracis NMAT [5]; read-out: KD1 (dissociation constant, first site), pH 7.5
  Kd: 382 µM
B. anthracis NMAT [5]; [9]
  Kd: 9210 µM
Native B. anthracis NMAT [6]
  K0.5: 110 ± 18 ^c μM and 65 ± 5 ^d μM
  kcat: 1059 ± 49 ^c min^−1 and 890 ± 16 ^d min^−1
  nH (Hill coefficient): 0.708 ± 0.004 ^c
Native B. anthracis NMAT [7]
  K0.5: 16 ± 1 ^c μM and 15 ± 1 ^d μM
  kcat: 815 ± 12 ^c min^−1 and 782 ± 7 ^d min^−1
  nH (Hill coefficient): 0.806 ± 0.004 ^c
[8]
  difference in K0.5 between the continuous and discontinuous assays: ~4 fold
